Data from patent publication US20110151258A1, “PREPARATION OF RANOLAZINE” (DR. REDDY'S LABORATORIES LTD., priority 2008, published 2011).

Columns and labels:
Assay type in all cases: physicochemical
[1] = Particle size distribution by light scattering (Malvern Master Sizer 2000); settings: for Particle size distribution: D10: 10th volume percentile particle size; for Particle size distribution: D50: 50th volume percentile particle size; for Particle size distribution: D90: 90th volume percentile particle size
Excerpt: Particle size distributions of ranolazine particles may be measured by any technique known in the art. For example, particle size distributions of ranolazine particles may be measured using light scattering equipment, such as, for example, a Malvern Master Sizer 2000 from Malvern Instruments Limited, Malvern, Worcestershire, United Kingdom (helium neon laser source, ranolazine suspended in light liquid paraffin, size range: 0.01 μm to 3000 μm).

[2] = Specific surface area and span by light scattering (Malvern method); settings: for Specific surface area: method not stated at the place; for span: particle size distribution span
Excerpt: (§1) In an embodiment, the present application provides a pharmaceutical composition comprising ranolazine having a specific surface area more than about 0.1 m^2/g, or more than about 0.5 m^2/g, or more than about 1 m^2/g, or more than about 2 m^2/g, or more than about 3 m^2/g, or more than about 5 m^2/g. “Specific surface area” as used herein, unless otherwise defined refers to the total particle surface […]. The specific surface area of ranolazine of the present invention may be measured by a BET (Brunauer, Emmett and Teller) specific surface method, such as using a Micromeritics Gemini surface area analyzer, model 2365. Samples for analysis are degassed at 40° C. under reduced pressure and the determination of the adsorption of nitrogen gas at 77° K may be measured for relative pressures in the range of 0.05-0.3. Specific surface area and span of ranolazine of the present application may be measured by using light scattering equipment, such as, for example, a Malvern Master Sizer 2000 (helium neon laser source, ranolazine suspended in light liquid paraffin, size range: 0.01 μm to 3000 μm).

[3] = Specific surface area by BET method
Excerpt: as §1

[4] = Bulk density (USP Test 616, method 2)
Excerpt: In an embodiment, the present application provides ranolazine having bulk densities less than about 0.8 g/mL, or less than about 0.5 g/mL, or less than about 0.3 g/mL. Bulk density may be determined using Test 616 “Bulk Density and Tapped Density,” as in United States Pharmacopoeia 29, United States Pharmacopeial Convention, Inc., Rockville, Md., 2005, in method 2.

Row | SMILES | Particle size distribution: D10 [1] [μm] | Particle size distribution: D50 [1] [μm] | Particle size distribution: D90 [1] [μm] | Specific surface area [2] [m^2/g] | span [2] | Specific surface area by Malvern method [2] [m^2/g] | specific surface area by BET method [3] [m^2/g] | bulk density after tapping ([4]; after tapping) [g/mL] | bulk density before tapping ([4]; before tapping) [g/mL]
1 | COc1ccccc1OCC(O)CN1CCN(CC(=O)Nc2c(C)cccc2C)CC1 (stereo not shown) [Example 19, Ranolazine] | 13.262 | 41.574 | 89.060 | 0.291 | 1.823 |  |  |  | 
2 | COc1ccccc1OCC(O)CN1CCN(CC(=O)Nc2c(C)cccc2C)CC1 (stereo not shown) [Example 17, Ranolazine] | 1.324 | 5.140 | 11.116 |  | 1.905 | 1.99 | 2.54 |  | 
3 | COc1ccccc1OCC(O)CN1CCN(CC(=O)Nc2c(C)cccc2C)CC1 (stereo not shown) [Example 16, Ranolazine] | 5.026 | 18.770 | 39.137 |  | 1.817 | 1.63 | 0.46 |  | 
4 | COc1ccccc1OCC(O)CN1CCN(CC(=O)Nc2c(C)cccc2C)CC1 (stereo not shown) [Example 14, Ranolazine] | 6.311 | 22.490 | 47.539 | 0.539 | 1.833 |  |  |  | 
5 | COc1ccccc1OCC(O)CN1CCN(CC(=O)Nc2c(C)cccc2C)CC1 (stereo not shown) [Example 15, Ranolazine] | 5.272 | 18.656 | 57.748 | 0.655 | 2.813 |  |  |  | 
6 | COc1ccccc1OCC(O)CN1CCN(CC(=O)Nc2c(C)cccc2C)CC1 (stereo not shown) [Example 18, Ranolazine] | 4.420 | 16.147 | 30.439 | 0.705 | 1.611 |  |  | 0.477 | 0.353
